Experiment [1] relates to C. xerosis. As to the kind of experiment: Antimicrobial effect: germ count over time in 0.3% by weight aqueous solution of test substance. Type of experiment: cell-based, Corynebacterium xerosis. The note with it: 0.3% by weight in water, 37° C.; for germ count CFU/ml, 0 hours: directly after addition (0 h). As for the experimental part:
(§1) 20 ml of a 0.3% by weight solution of the test substance listed below in the table in water was inoculated with 200 μl of a fresh 48 hour culture of C. xerosis or S. epidermidis and incubated for three days at 37° C. Directly after the addition, as well as after 1, 3, 24 and 48 hours, samples, each of 1 ml, were taken and the germ count was determined.

Experiment [2] relates to S. epidermidis. Described as above. Format: cell-based, Staphylococcus epidermidis. To be noted: 0.3% by weight in water, 37° C.; for germ count CFU/ml, 0 hours: directly after addition (0 h). The procedure: as §1
In experiment [3] the test system is C. xerosis. As to the kind of experiment: pH dependency of the antimicrobial effect: germ count in buffered solutions. Format: cell-based, Corynebacterium xerosis. As for the experimental part:
as §1
(§2) The antimicrobial effect of octyllactamide in buffered solutions was tested correspondingly to example 8 at various pH values.

The test system of experiment [4] is S. epidermidis. The experiment is described as above. Format: cell-based, Staphylococcus epidermidis. The procedure:
as §1, §2

Take `CCCCCCNC(=O)C(C)O` (stereo not shown) [Hexyllactamide, N-Hexyllactamide]: in experiment [1], the “germ count CFU/ml, 1 hour” value is 5.5E+5 CFU/ml; the “germ count CFU/ml, 3 hours” value turned out to be 2.6E+3 CFU/ml; the “germ count CFU/ml, 24 hours” value is reported as below 2.0E+2 CFU/ml; the “germ count CFU/ml, 48 hours” value is below 2.0E+2 CFU/ml. For the same compound, the “germ count CFU/ml, 0 hours” value in experiment [1] turned out to be 2.5E+6 CFU/ml. In experiment [2], the “germ count CFU/ml, 1 hour” value was determined as 1.7E+6 CFU/ml; the “germ count CFU/ml, 3 hours” value came out at 7.1E+5 CFU/ml; the “germ count CFU/ml, 24 hours” value is listed as below 2.0E+2 CFU/ml; the “germ count CFU/ml, 48 hours” value was below 2.0E+2 CFU/ml. The “germ count CFU/ml, 0 hours” value in experiment [2] amounted to 8.6E+6 CFU/ml.
In the case of `CCCCCCCCNC(=O)C(C)O` (stereo not shown) [Octyllactamide, N-octyllactamide], the “germ count CFU/ml, 1 hour” value in experiment [1] was found to be 1.5E+4 CFU/ml; in experiment [2], 3.7E+6 CFU/ml; in experiment [3] (buffered solution pH 4.5, 1 h), 5.5E+4 CFU/ml; in experiment [3] (buffered solution pH 5.5, 1 h), 1.8E+5 CFU/ml; in experiment [3] (buffered solution pH 6.9, 1 h), 3.3E+3 CFU/ml; in experiment [4] (buffered solution pH 4.5, 1 h), 2.1E+6 CFU/ml. Besides, the “germ count CFU/ml, 1 hour” value in experiment [4] (buffered solution pH 5.5, 1 h) is 1.7E+6 CFU/ml; in experiment [4] (buffered solution pH 6.9, 1 h), 1.5E+6 CFU/ml. For the same compound, the “germ count CFU/ml, 3 hours” value in experiment [1] is reported as below 2.0E+2 CFU/ml; in experiment [2] it was 3.0E+6 CFU/ml; in experiment [3] (buffered solution pH 4.5, 3 h) it was below 2.0E+2 CFU/ml; in experiment [3] (buffered solution pH 5.5, 3 h) it was 3.5E+4 CFU/ml; in experiment [3] (buffered solution pH 6.9, 3 h), below 2.0E+2 CFU/ml; in experiment [4] (buffered solution pH 4.5, 3 h) it was 7.9E+4 CFU/ml. Also, the “germ count CFU/ml, 3 hours” value was found to be 4.7E+3 CFU/ml in experiment [4] (buffered solution pH 5.5, 3 h) and 5.7E+4 CFU/ml in experiment [4] (buffered solution pH 6.9, 3 h). Besides, the “germ count CFU/ml, 24 hours” value in experiment [1] is given as below 2.0E+2 CFU/ml; in experiment [2] it was 2.3E+6 CFU/ml; in experiment [3] (buffered solution pH 4.5, 24 h), below 2.0E+2 CFU/ml; in experiment [3] (buffered solution pH 5.5, 24 h) it was below 2.0E+2 CFU/ml; in experiment [3] (buffered solution pH 6.9, 24 h), below 2.0E+2 CFU/ml; in experiment [4] (buffered solution pH 4.5, 24 h), below 2.0E+2 CFU/ml. Moreover, the “germ count CFU/ml, 24 hours” value in experiment [4] (buffered solution pH 5.5, 24 h) is given as below 2.0E+2 CFU/ml; in experiment [4] (buffered solution pH 6.9, 24 h), below 2.0E+2 CFU/ml. For the same compound, the “germ count CFU/ml, 48 hours” value was below 2.0E+2 CFU/ml in experiment [1]; 8.5E+5 CFU/ml in experiment [2]; below 2.0E+2 CFU/ml in experiment [3] (buffered solution pH 4.5, 48 h); below 2.0E+2 CFU/ml in experiment [3] (buffered solution pH 5.5, 48 h); below 2.0E+2 CFU/ml in experiment [3] (buffered solution pH 6.9, 48 h); below 2.0E+2 CFU/ml in experiment [4] (buffered solution pH 4.5, 48 h). Moreover, the “germ count CFU/ml, 48 hours” value in experiment [4] (buffered solution pH 5.5, 48 h) is listed as below 2.0E+2 CFU/ml; in experiment [4] (buffered solution pH 6.9, 48 h), below 2.0E+2 CFU/ml. Also, the “germ count CFU/ml, 0 hours” value in experiment [1] was 9.1E+5 CFU/ml; in experiment [2], 1.9E+7 CFU/ml; in experiment [3] (buffered solution pH 4.5, 0 h), 1.0E+6 CFU/ml; in experiment [3] (buffered solution pH 5.5, 0 h), 1.0E+6 CFU/ml; in experiment [3] (buffered solution pH 6.9, 0 h), 7.3E+5 CFU/ml; in experiment [4] (buffered solution pH 4.5, 0 h) it was 3.7E+6 CFU/ml. Further, the “germ count CFU/ml, 0 hours” value in experiment [4] (buffered solution pH 5.5, 0 h) is listed as 3.7E+6 CFU/ml; in experiment [4] (buffered solution pH 6.9, 0 h) it was 3.1E+6 CFU/ml.
On to “PEG-3-octyllactamide [Octyl-PEG-3-lactamide]”, for which, in experiment [1], the “germ count CFU/ml, 1 hour” value stood at 6.3E+4 CFU/ml; the “germ count CFU/ml, 3 hours” value was 3.7E+3 CFU/ml; the “germ count CFU/ml, 24 hours” value is below 2.0E+2 CFU/ml; the “germ count CFU/ml, 48 hours” value was below 2.0E+2 CFU/ml. The “germ count CFU/ml, 0 hours” value in experiment [1] is listed as 9.1E+5 CFU/ml. Further, in experiment [2], the “germ count CFU/ml, 1 hour” value is given as 4.1E+6 CFU/ml; the “germ count CFU/ml, 3 hours” value was found to be 3.1E+6 CFU/ml; the “germ count CFU/ml, 24 hours” value was below 2.0E+2 CFU/ml; the “germ count CFU/ml, 48 hours” value is reported as below 2.0E+2 CFU/ml. Also, in experiment [2], the “germ count CFU/ml, 0 hours” value is reported as 1.9E+7 CFU/ml.
Regarding “PEG-10-octyllactamide [Octyl-PEG-10-lactamide]”, in experiment [1], the “germ count CFU/ml, 1 hour” value turned out to be 4.5E+5 CFU/ml; the “germ count CFU/ml, 3 hours” value was found to be 1.8E+5 CFU/ml; the “germ count CFU/ml, 24 hours” value is on record as 1.6E+3 CFU/ml; the “germ count CFU/ml, 48 hours” value is recorded as below 2.0E+2 CFU/ml. For the same compound, the “germ count CFU/ml, 0 hours” value in experiment [1] is on record as 9.1E+5 CFU/ml. Further, in experiment [2], the “germ count CFU/ml, 1 hour” value amounted to 2.3E+6 CFU/ml; the “germ count CFU/ml, 3 hours” value was 9.3E+6 CFU/ml; the “germ count CFU/ml, 24 hours” value came to 8.1E+4 CFU/ml; the “germ count CFU/ml, 48 hours” value is below 2.0E+2 CFU/ml. Besides, the “germ count CFU/ml, 0 hours” value in experiment [2] amounted to 1.9E+7 CFU/ml.

These data come from patent US7847123B2, “Antimicrobial compositions” (Evonik Goldschmidt GmbH, priority 2006, dated 2010).
